Laboratory results as given in patent US20210144998A1 (priority 2019, published 2021).
Structures can show the parent of a compound that is named as a salt. Where two headings read alike, the source gives them in different places.

How the values were obtained:
VisNR = details: Microsource

SMILES: O=C(O)CN(CCN(CC(=O)O)CC(=O)O)CCN(CC(=O)O)CC(=O)O [Diethylenetriaminepentaacetic acid]
- activity annotation, target not given (LOPAC): Diethylenetriaminepentaacetic acid (1; inactive LOPAC)

SMILES: CC[C@H]1OC(=O)[C@H](C)[C@@H](O[C@H]2C[C@@](C)(OC)[C@@H](O)[C@H](C)O2)[C@H](C)[C@@H](O[C@@H]2O[C@H](C)C[C@H](N(C)C)[C@H]2O)[C@](C)(OC)C[C@@H](C)C(=O)[C@H](C)[C@@H](O)[C@]1(C)O [CLARITHROMYCIN]
- activity annotation RpoH (RpoH; NIHCC): CLARITHROMYCIN (2; inactive LdtR & RpoH NIHCC)
- activity annotation LdtR (LdtR; NIHCC): CLARITHROMYCIN (2; inactive LdtR & RpoH NIHCC)

SMILES: CC(=O)NC[C@H]1CN(c2ccc(N3CCOCC3)c(F)c2)C(=O)O1 [LINEZOLIDE]
- activity annotation, target not given (NIHCC): LINEZOLIDE (1; inactive NIHCC)

SMILES: NC(=O)c1ncn([C@@H]2O[C@H](CO)[C@@H](O)[C@H]2O)n1 [Ribavirin]
- activity annotation RpoH (RpoH; Biomol FDA): Ribavirin (2; inactive RpoH Biomol FDA)

SMILES: CN1CCN(c2c(F)cc3c(=O)c(C(=O)O)cn4c3c2SCC4)CC1 [RUFLOXACIN HCl]
- activity annotation RpoH (RpoH; NIHCC): RUFLOXACIN HCl (2; inactive LdtR & RpoH NIHCC)
- activity annotation LdtR (LdtR; NIHCC): RUFLOXACIN HCl (2; inactive LdtR & RpoH NIHCC)

SMILES: CCn1cc(C(=O)O)c(=O)c2cc(F)c(N3CCNC(C)C3)c(F)c21.Cl (stereo not shown) [Lomefloxacin hydrochloride]
- activity annotation VisNR (VisNR): Lomefloxacin hydrochloride (2; inactive LOPAC & VisNR Microsource)

SMILES: O=c1[nH]cc(F)c(=O)[nH]1 [5-Fluorouracil]
- activity annotation LdtR (LdtR; LOPAC): 5-Fluorouracil (2; inactive LdtR LOPAC)

SMILES: CCn1cc(C(=O)O)c(=O)c2cc(F)c(N3CCN(C)CC3)cc21.CS(=O)(=O)O [PEFLOXACIN MESYLATE]
- activity annotation, target not given (NIHCC): PEFLOXACIN MESYLATE (2; inactive NIHCC)
